This passage reports IC50 results from US9579314B2 (priority 2015, dated 2017).

One assay concerns the target Human M3 receptor (Homo sapiens, UniProt P20309). To be noted: read-out: M3 binding affinity.
The target of a further assay is Human β2 adrenoceptor (Homo sapiens, UniProt P07550). As to conditions: read-out: B2 binding affinity.

pIC50: −log10 of the molar value.

Human β2 adrenoceptor, sequence (P07550 whole entry): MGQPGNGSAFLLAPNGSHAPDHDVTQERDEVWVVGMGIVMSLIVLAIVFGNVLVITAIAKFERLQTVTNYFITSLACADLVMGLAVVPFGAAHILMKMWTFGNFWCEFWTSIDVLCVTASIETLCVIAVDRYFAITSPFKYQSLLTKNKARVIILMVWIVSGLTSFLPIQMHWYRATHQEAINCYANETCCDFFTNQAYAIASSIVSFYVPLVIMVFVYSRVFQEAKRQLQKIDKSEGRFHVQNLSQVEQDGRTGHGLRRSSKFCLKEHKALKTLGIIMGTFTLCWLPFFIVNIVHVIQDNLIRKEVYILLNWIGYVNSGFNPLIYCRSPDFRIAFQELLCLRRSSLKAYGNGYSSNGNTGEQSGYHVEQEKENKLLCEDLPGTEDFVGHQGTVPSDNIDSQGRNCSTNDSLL
Human M3 receptor, sequence (P20309 whole entry): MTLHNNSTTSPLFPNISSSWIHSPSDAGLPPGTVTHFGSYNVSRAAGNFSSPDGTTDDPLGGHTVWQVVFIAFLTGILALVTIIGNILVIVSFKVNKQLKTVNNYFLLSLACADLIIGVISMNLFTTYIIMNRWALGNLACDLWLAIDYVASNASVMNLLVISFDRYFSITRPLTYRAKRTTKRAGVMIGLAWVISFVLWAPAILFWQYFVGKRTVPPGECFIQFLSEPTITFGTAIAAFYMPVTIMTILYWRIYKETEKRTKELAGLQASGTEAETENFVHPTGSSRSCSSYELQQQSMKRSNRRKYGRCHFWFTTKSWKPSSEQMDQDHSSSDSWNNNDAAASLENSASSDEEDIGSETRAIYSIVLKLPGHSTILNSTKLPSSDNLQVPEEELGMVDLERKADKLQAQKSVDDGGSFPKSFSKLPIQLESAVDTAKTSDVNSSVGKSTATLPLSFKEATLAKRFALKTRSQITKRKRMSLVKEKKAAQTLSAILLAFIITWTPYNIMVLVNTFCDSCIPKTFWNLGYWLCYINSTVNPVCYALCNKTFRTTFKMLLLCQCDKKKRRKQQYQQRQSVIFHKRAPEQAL

For the compound `COc1cc(C(=O)N[C@H]2C[C@H](NC(=O)COc3cccc([C@](O)(C(=O)OCC4CCN(Cc5ccccc5)CC4)c4ccccc4)c3)C2)ccc1CNC[C@H](O)c1ccc(O)c2[nH]c(=O)ccc12` [Compound 131, (S)-(1-benzylpiperidin-4-yl)methyl 2-hydroxy-2-(3-(2-(((1R,3S)-3-(4-((((R)-2-hydroxy-2-(8-hydroxy-2-oxo-1,2-dihydroquinolin-5-yl)ethyl)amino)methyl)-3-methoxybenzamido)cyclobutyl)amino)-2-oxoethoxy)phenyl)-2-phenylacetate], the pIC50 is 8.52 to 9.52 on Human M3 receptor and over 9.52 on Human β2 adrenoceptor.
As for `O=C(NCc1ccc(COc2cccc([C@](O)(C(=O)OCC3CCN(Cc4ccccc4)CC3)c3ccccc3)c2)cc1)c1ccc(CNC[C@H](O)c2ccc(O)c3[nH]c(=O)ccc23)cc1` [Compound 42D, (1-benzylpiperidin-4-yl)methyl (S)-2-hydroxy-2-(3-((4-((4-((((R)-2-hydroxy-2-(8-hydroxy-2-oxo-1,2-dihydroquinolin-5-yl)ethyl)amino)methyl)benzamido)methyl)benzyl)oxy)phenyl)-2-phenylacetate], the results for the pIC50 at Human M3 receptor and on Human β2 adrenoceptor were 8.52 to 9.52 and over 9.52, respectively.
Regarding `COc1cc(C(=O)N[C@H]2C[C@H](NC(=O)COc3cccc([C@](O)(C(=O)OCC4CCN(Cc5ccccc5)CC4)c4ccccc4)c3)C2)c(Cl)cc1CNC[C@H](O)c1ccc(O)c2[nH]c(=O)ccc12` [Compound 137, (1-benzylpiperidin-4-yl)methyl (S)-2-(3-(2-(((1R,3S)-3-(2-chloro-4-((((R)-2-hydroxy-2-(8-hydroxy-2-oxo-1,2-dihydroquinolin-5-yl)ethyl)amino)methyl)-5-methoxybenzamido)cyclobutyl)amino)-2-oxoethoxy)phenyl)-2-hydroxy-2-phenylacetate], the pIC50 on Human M3 receptor is 8.52 to 9.52; on Human β2 adrenoceptor, over 9.52.
As for `O=C(NC1CN(C(=O)COc2cccc([C@](O)(C(=O)OCC3CCN(Cc4ccccc4)CC3)c3ccccc3)c2)C1)c1ccc(CCNC[C@H](O)c2ccc(O)c3[nH]c(=O)ccc23)cc1` [Compound 102, (1-benzylpiperidin-4-yl)methyl (S)-2-hydroxy-2-(3-(2-(3-(4-(2-(((R)-2-hydroxy-2-(8-hydroxy-2-oxo-1,2-dihydroquinolin-5-yl)ethyl)amino)ethyl)benzamido)azetidin-1-yl)-2-oxoethoxy)phenyl)-2-phenylacetate], the pIC50 at Human M3 receptor and at Human β2 adrenoceptor was over 9.52 each time.
With `COc1cc(C(=O)N[C@H]2C[C@H](NC(=O)c3ccc(COc4cccc([C@](O)(C(=O)OCC5CCN(Cc6ccccc6)CC5)c5ccccc5)c4)cc3)C2)ccc1CNC[C@H](O)c1ccc(O)c2[nH]c(=O)ccc12` [Compound 124, (1-benzylpiperidin-4-yl)methyl (S)-2-hydroxy-2-(3-((4-(((1R,3S)-3-(4-((((R)-2-hydroxy-2-(8-hydroxy-2-oxo-1,2-dihydroquinolin-5-yl)ethyl)amino)methyl)-3-methoxybenzamido)cyclobutyl)carbamoyl)benzyl)oxy)phenyl)-2-phenylacetate], the pIC50 on Human M3 receptor and at Human β2 adrenoceptor was 8.52 to 9.52 throughout.
As to `O=C(c1ccc(CNC[C@H](O)c2ccc(O)c3[nH]c(=O)ccc23)cc1)N1CC(COc2cccc([C@](O)(C(=O)OCC3CCN(Cc4ccccc4)CC3)c3ccccc3)c2)C1` [Compound 41, (S)-(1-benzylpiperidin-4-yl)methyl 2-hydroxy-2-(3-((1-(4-((((R)-2-hydroxy-2-(8-hydroxy-2-oxo-1,2-dihydroquinolin-5-yl)ethyl)amino)methyl)-benzoyl)azetidin-3-yl)methoxy)phenyl)-2-phenylacetate], the pIC50 on Human M3 receptor and on Human β2 adrenoceptor was 8.52 to 9.52 in each case.
